In one assay the test system is MIA PaCa-2 cells. Nature of the assay: MIA PaCa2 cell-based assay (1,536-well high-content imaging ALDEFLUOR assay). More on the design: species or system human. To be noted: Homo sapiens, 0.5 h, ALDEFLUOR BAAA substrate 500 nM, 30 minutes. In short, it runs like this:
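MIA PaCa-2 cells (1,000/well), plated overnight, given BAAA substrate (500 nM) plus Hoechst 33342 (0.5 nM), then compound (16-point, 1.4 nM–47.8 μM final; 0.5% DMSO). After 30 min at 37° C, ALDH activity imaged by high-content microscopy as BAA-retaining (FITC) cells versus Hoechst-stained nuclei.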

In a further assay the target is T1, ALDH1A1 enzyme (Homo sapiens, UniProt P00352).
T1 sequence (P00352 1-501): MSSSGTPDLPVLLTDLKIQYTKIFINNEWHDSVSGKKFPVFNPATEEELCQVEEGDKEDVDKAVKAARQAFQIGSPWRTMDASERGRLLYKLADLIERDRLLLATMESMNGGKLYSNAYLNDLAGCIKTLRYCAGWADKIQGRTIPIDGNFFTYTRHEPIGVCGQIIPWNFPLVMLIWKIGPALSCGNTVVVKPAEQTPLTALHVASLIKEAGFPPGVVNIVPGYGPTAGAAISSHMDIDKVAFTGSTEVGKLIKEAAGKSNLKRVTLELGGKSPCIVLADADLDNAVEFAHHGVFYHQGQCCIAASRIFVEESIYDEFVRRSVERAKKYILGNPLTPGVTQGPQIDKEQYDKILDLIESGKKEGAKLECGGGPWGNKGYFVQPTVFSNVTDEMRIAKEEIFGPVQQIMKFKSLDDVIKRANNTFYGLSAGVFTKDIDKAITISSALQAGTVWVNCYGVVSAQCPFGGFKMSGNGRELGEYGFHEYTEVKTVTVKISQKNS
Nature of the assay: ALDH1A1 enzymatic assay (in vitro). In kind it is biochemical. To be noted: ALDH1A1 enzyme 20 nM, NAD+ 1 mM, propionaldehyde 80 μM; read-out: ALDH1A1 IC50. In short, it runs like this: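 ALDH1A1 (20 nM final) in 100 mM HEPES pH 7.5, 0.01% Tween 20 was preincubated 15 min at RT with compound (968 pM–57.2 μM final), then started with 1 mM NAD+ and 80 μM propionaldehyde. NADH fluorescence (ex 340/em 450 nm) followed kinetically for 10 min; change normalized to no-inhibitor and no-enzyme controls for percent inhibition and curve fitting.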

pIC50: −log10 of the molar value.

Data on 24 compounds can be found in patent US11795177B2, “Substituted quinoline analogs as aldehyde dehydrogenase 1A1 (ALDH1A1) inhibitors” (THE UNITED STATES OF AMERICA, AS REPRESENTED BY THE …, priority 2017, dated 2023).

As usually defined, the pIC50 is the negative decadic logarithm of the IC50, by convention in mol/L. With `CN(C)S(=O)(=O)N1CCN(C(=O)c2cnc3ccc(F)cc3c2N2CCC3(CC2)OCCO3)CC1` [Example 152, 4-(6-fluoro-4-(1,4-dioxa-8-azaspiro[4.5]decan-8-yl)quinoline-3-carbonyl)-N,N-dimethylpiperazine-1-sulfonamide], the values for the pIC50 in the assay with MIA PaCa-2 cells and on ALDH1A1 enzyme were 6.00 to 6.30 and > 6.30, respectively.
Take `O=C(c1cnc2ccc(F)cc2c1N1CCC2(CC1)OCCO2)N1CCN(S(=O)(=O)N2CCCC2)CC1` [Example 153, (6-fluoro-4-(1,4-dioxa-8-azaspiro[4.5]decan-8-yl)quinolin-3-yl)(4-(pyrrolidin-1-ylsulfonyl)piperazin-1-yl)methanone]: the pIC50 in the assay on MIA PaCa-2 cells is < 5.00; on ALDH1A1 enzyme, > 6.30.
In the same order, the values of `CCN(CC)C(=O)N1CCN(C(=O)c2cnc3ccc(F)cc3c2N2CCC(C)(C#N)CC2)CC1` [Example 154, 4-(4-(4-cyano-4-methylpiperidin-1-yl)-6-fluoroquinoline-3-carbonyl)-N,N-diethylpiperazine-1-carboxamide] are 5.00 to 6.00 and > 6.30.
The matching figures for `CC1(C#N)CCN(c2c(C(=O)N3CCN(C(=O)N4CCCC4)CC3)cnc3ccc(F)cc23)CC1` [Example 155, 1-(6-fluoro-3-(4-(pyrrolidine-1-carbonyl)piperazine-1-carbonyl)quinolin-4-yl)-4-methylpiperidine-4-carbonitrile]: < 5.00 and 5.00 to 6.00.
In the same order, the values of `CC1(C#N)CCN(c2c(C(=O)N3CCN(S(=O)(=O)N4CCCC4)CC3)cnc3ccc(F)cc23)CC1` [Example 158, 1-(6-fluoro-3-(4-(pyrrolidin-1-ylsulfonyl)piperazine-1-carbonyl)quinolin-4-yl)-4-methylpiperidine-4-carbonitrile] are < 5.00 and 5.00 to 6.00.
For the compound `CCN(CC)C(=O)N1CCN(C(=O)c2cnc3c(F)cc(F)cc3c2N2CCC3(CC2)OCCO3)CC1` [Example 159, 4-(6,8-difluoro-4-(1,4-dioxa-8-azaspiro[4.5]decan-8-yl)quinoline-3-carbonyl)-N,N-diethylpiperazine-1-carboxamide], the pIC50 is 5.00 to 6.00 in the assay on MIA PaCa-2 cells and > 6.30 on ALDH1A1 enzyme.
The matching figures for `O=C(c1cnc2c(F)cc(F)cc2c1N1CCC2(CC1)OCCO2)N1CCN(C(=O)N2CCCC2)CC1` [Example 160, (6,8-difluoro-4-(1,4-dioxa-8-azaspiro[4.5]decan-8-yl)quinolin-3-yl)(4-(pyrrolidine-1-carbonyl)piperazin-1-yl)methanone]: < 5.00 and > 6.30.
The matching figures for `CCS(=O)(=O)N1CCN(C(=O)c2cnc3c(F)cc(F)cc3c2N2CCC3(CC2)OCCO3)CC1` [Example 161, (6,8-difluoro-4-(1,4-dioxa-8-azaspiro[4.5]decan-8-yl)quinolin-3-yl)(4-(ethylsulfonyl)piperazin-1-yl)methanone]: 5.00 to 6.00 and > 6.30.
In the same order, the values of `CN(C)S(=O)(=O)N1CCN(C(=O)c2cnc3c(F)cc(F)cc3c2N2CCC3(CC2)OCCO3)CC1` [Example 162, 4-(6,8-difluoro-4-(1,4-dioxa-8-azaspiro[4.5]decan-8-yl)quinoline-3-carbonyl)-N,N-dimethylpiperazine-1-sulfonamide] are 6.00 to 6.30 and > 6.30.
With `O=C(c1cnc2c(F)cc(F)cc2c1N1CCC2(CC1)OCCO2)N1CCN(S(=O)(=O)N2CCCC2)CC1` [Example 163, (6,8-difluoro-4-(1,4-dioxa-8-azaspiro[4.5]decan-8-yl)quinolin-3-yl)(4-(pyrrolidin-1-ylsulfonyl)piperazin-1-yl)methanone], the pIC50 was < 5.00 in the assay with MIA PaCa-2 cells and > 6.30 at ALDH1A1 enzyme.
In the same order, the values of `CCN(CC)C(=O)N1CCN(C(=O)c2cnc3c(F)cc(F)cc3c2N2CCC(C)(C#N)CC2)CC1` [Example 164, 4-(4-(4-cyano-4-methylpiperidin-1-yl)-6,8-difluoroquinoline-3-carbonyl)-N,N-diethylpiperazine-1-carboxamide] are 5.00 to 6.00 and 6.00 to 6.30.
The matching figures for `CC1(C#N)CCN(c2c(C(=O)N3CCN(C(=O)N4CCCC4)CC3)cnc3c(F)cc(F)cc23)CC1` [Example 165, 1-(6,8-difluoro-3-(4-(pyrrolidine-1-carbonyl)piperazine-1-carbonyl)quinolin-4-yl)-4-methylpiperidine-4-carbonitrile]: 5.00 to 6.00 and 5.00 to 6.00.
The matching figures for `CCS(=O)(=O)N1CCN(C(=O)c2cnc3c(F)cc(F)cc3c2N2CCC(C)(C#N)CC2)CC1` [Example 166, 1-(3-(4-(ethylsulfonyl)piperazine-1-carbonyl)-6,8-difluoroquinolin-4-yl)-4-methylpiperidine-4-carbonitrile]: 5.00 to 6.00 and > 6.30.
Turning to `CN(C)S(=O)(=O)N1CCN(C(=O)c2cnc3c(F)cc(F)cc3c2N2CCC(C)(C#N)CC2)CC1` [Example 167, 4-(4-(4-cyano-4-methylpiperidin-1-yl)-6,8-difluoroquinoline-3-carbonyl)-N,N-dimethylpiperazine-1-sulfonamide], the negative logarithm of the IC50 (pIC50) in the assay with MIA PaCa-2 cells and at ALDH1A1 enzyme was > 6.30 throughout.
With `CC1(C#N)CCN(c2c(C(=O)N3CCN(S(=O)(=O)N4CCCC4)CC3)cnc3c(F)cc(F)cc23)CC1` [Example 168, 1-(6,8-difluoro-3-(4-(pyrrolidin-1-ylsulfonyl)piperazine-1-carbonyl)quinolin-4-yl)-4-methylpiperidine-4-carbonitrile], the pIC50 was < 5.00 in the assay with MIA PaCa-2 cells and 5.00 to 6.00 on ALDH1A1 enzyme.
In the same order, the values of `CCN(CC)C(=O)N1CCN(C(=O)c2cnc3cc(F)c(F)cc3c2N2CCC3(CC2)OCCO3)CC1` [Example 169, 4-(6,7-difluoro-4-(1,4-dioxa-8-azasprio[4.5]decan-8-yl)quinoline-3-carbonyl)-N,N-diethylpiperazine-1-carboxamide] are 5.00 to 6.00 and > 6.30.
`O=C(c1cnc2cc(F)c(F)cc2c1N1CCC2(CC1)OCCO2)N1CCN(C(=O)N2CCCC2)CC1` [Example 170, (6,7-difluoro-4-(1,4-dioxa-8-azaspiro[4.5]decan-8-yl)quinolin-3-yl)(4-(pyrrolidine-1-carbonyl)piperazin-1-yl)methanone]: the figures for the pIC50 in the assay on MIA PaCa-2 cells and on ALDH1A1 enzyme were 5.00 to 6.00 and > 6.30, respectively.
In the same order, the values of `CCS(=O)(=O)N1CCN(C(=O)c2cnc3cc(F)c(F)cc3c2N2CCC3(CC2)OCCO3)CC1` [Example 171, (6,7-difluoro-4-(1,4-dioxa-8-azaspiro[4.5]decan-8-yl)quinolin-3-yl)(4-(ethylsulfonyl)piperazin-1-yl)methanone] are 5.00 to 6.00 and > 6.30.
With `CN(C)S(=O)(=O)N1CCN(C(=O)c2cnc3cc(F)c(F)cc3c2N2CCC3(CC2)OCCO3)CC1` [Example 172, 4-(6,7-difluoro-4-(1,4-dioxa-8-azaspiro[4.5]decan-8-yl)quinoline-3-carbonyl)-N,N-dimethylpiperazine-1-sulfonamide], the pIC50 in the assay with MIA PaCa-2 cells is 6.00 to 6.30; at ALDH1A1 enzyme it was > 6.30.
The matching figures for `O=C(c1cnc2cc(F)c(F)cc2c1N1CCC2(CC1)OCCO2)N1CCN(S(=O)(=O)N2CCCC2)CC1` [Example 173, (6,7-difluoro-4-(1,4-dioxa-8-azaspiro[4.5]decan-8-yl)quinolin-3-yl)(4-(pyrrolidin-1-ylsulfonyl)piperazin-1-yl)methanone]: < 5.00 and > 6.30.
In the case of `CCN(CC)C(=O)N1CCN(C(=O)c2cnc3cc(F)c(F)cc3c2N2CCC(C)(C#N)CC2)CC1` [Example 174, 4-(4-(4-cyano-4-methylpiperidin-1-yl)-6,7-difluoroquinoline-3-carbonyl)-N,N-diethylpiperazine-1-carboxamide], the results for the pIC50 in the assay with MIA PaCa-2 cells and on ALDH1A1 enzyme were 5.00 to 6.00 and 6.00 to 6.30, respectively.
The matching figures for `CC1(C#N)CCN(c2c(C(=O)N3CCN(C(=O)N4CCCC4)CC3)cnc3cc(F)c(F)cc23)CC1` [Example 175, 1-(6,7-difluoro-3-(4-(pyrrolidine-1-carbonyl)piperazine-1-carbonyl)quinolin-4-yl)-4-methylpiperidine-4-carbonitrile]: 5.00 to 6.00 and 5.00 to 6.00.
The matching figures for `CCS(=O)(=O)N1CCN(C(=O)c2cnc3cc(F)c(F)cc3c2N2CCC(C)(C#N)CC2)CC1` [Example 176, 1-(3-(4-(ethylsulfonyl)piperazine-1-carbonyl)-6,7-difluoroquinolin-4-yl)-4-methylpiperidine-4-carbonitrile]: 5.00 to 6.00 and > 6.30.
The matching figures for `CN(C)S(=O)(=O)N1CCN(C(=O)c2cnc3cc(F)c(F)cc3c2N2CCC(C)(C#N)CC2)CC1` [Example 177, 4-(4-(4-cyano-4-methylpiperidin-1-yl)-6,7-difluoroquinoline-3-carbonyl)-N,N-dimethylpiperazine-1-sulfonamide]: > 6.30 and > 6.30.
